The structures appear in SMILES notation.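 Five compound concentrations were applied to cells in 96-well plates for 48 hours; endpoints were derived by simple linear interpolation of the resulting dose-response curve. At the GI50, growth is halved. TGI: concentration producing complete growth inhibition.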

Test systems include A498 renal; HOP-62 NSCLC; HOP-92 NSCLC; M19-MEL melanoma; MCF7 breast; MDA-MB-231 breast; OVCAR-8 ovarian; SF-539 CNS; SW-620 colon.
What all share (assay): growth of human tumour cells (NCI), 48 h

As for `N#CC(Cl)CS(=O)(=O)c1ccccc1` (stereo not drawn), the TGI is 30.9 µM with A498 renal; above 59.1 µM in the assay on HOP-62 NSCLC; 4.1 µM with HOP-92 NSCLC; 29.2 µM in the assay on M19-MEL melanoma; 32.8 µM with MCF7 breast; 41.4 µM with MDA-MB-231 breast. Further, the TGI with OVCAR-8 ovarian turned out to be 11.1 µM; in the assay on SF-539 CNS it was 28.5 µM; with SW-620 colon it was 3.75 µM.

Turning to `Cn1cc(Nc2nccc(-c3ccc4c(c3)CN(C3COC3)CC[C@H]4NC(=O)c3cn(C(C)(C)C)nn3)n2)cn1`, the GI50 was 76.5 µM in the assay on A498 renal; above 100 µM in the assay on HOP-62 NSCLC; 16 µM in the assay on HOP-92 NSCLC; 41.4 µM in the assay with MCF7 breast; 77.3 µM with MDA-MB-231 breast; above 100 µM in the assay on OVCAR-8 ovarian. Moreover, the GI50 was 99.1 µM in the assay on SF-539 CNS and above 100 µM with SW-620 colon. In addition, the TGI is above 100 µM with A498 renal; above 100 µM with HOP-62 NSCLC; 89.7 µM in the assay with HOP-92 NSCLC; above 100 µM in the assay with MCF7 breast; above 100 µM with MDA-MB-231 breast; above 100 µM in the assay with OVCAR-8 ovarian. Besides, the TGI in the assay on SF-539 CNS and in the assay on SW-620 colon was above 100 µM each time.

For `COc1cc(C(=O)/C=C/c2cccnc2Nc2ccc(Cl)cc2)cc(OC)c1OC`, the GI50 with A498 renal was 1.41 µM; in the assay with HOP-62 NSCLC, 1.65 µM; in the assay on HOP-92 NSCLC, 0.519 µM; in the assay on MCF7 breast it was 1.02 µM; in the assay with MDA-MB-231 breast, 1.49 µM; in the assay on OVCAR-8 ovarian, 1.63 µM. The GI50 in the assay with SF-539 CNS was 1.71 µM; in the assay on SW-620 colon it was 0.955 µM. Further, the TGI with A498 renal turned out to be 2.84 µM; with HOP-62 NSCLC it was 3.13 µM; in the assay with HOP-92 NSCLC it was 2.14 µM; in the assay with MCF7 breast, 2.35 µM; with MDA-MB-231 breast it was 3.12 µM; in the assay with OVCAR-8 ovarian it was 4.31 µM. Moreover, the TGI in the assay with SF-539 CNS worked out at 3.11 µM; in the assay on SW-620 colon, 2.47 µM.

Regarding `Cc1ncnc2c1ccn2[C@@H]1C[C@H](Oc2cc(C(F)F)c(F)c3c2CNCC3)[C@@H](O)[C@H]1O`, the GI50 in the assay on A498 renal was above 100 µM; with HOP-62 NSCLC, above 100 µM; in the assay on HOP-92 NSCLC, 4.68 µM; in the assay on MCF7 breast it was above 100 µM; with MDA-MB-231 breast, above 100 µM; in the assay with OVCAR-8 ovarian, above 100 µM. Besides, the GI50 in the assay on SF-539 CNS and in the assay on SW-620 colon was above 100 µM in each case. Moreover, the TGI with A498 renal, in the assay on HOP-62 NSCLC, with HOP-92 NSCLC, in the assay on MCF7 breast, with MDA-MB-231 breast and in the assay with OVCAR-8 ovarian was above 100 µM throughout. Also, the TGI in the assay on SF-539 CNS and in the assay on SW-620 colon was above 100 µM throughout.

On to `CCOC(=O)C(Cc1ccccc1)n1c(O)c(/C=N/c2ncc(Cc3ccc(Cl)cc3Cl)s2)sc1=S` (stereo not drawn), for which the GI50 in the assay with A498 renal was 1.58 µM; with HOP-62 NSCLC, 2.69 µM; with HOP-92 NSCLC, 1.65 µM; in the assay on MCF7 breast, 2.36 µM; with MDA-MB-231 breast, 3.88 µM; in the assay on OVCAR-8 ovarian, 2.07 µM. The GI50 was 2.58 µM with SF-539 CNS and 3.45 µM in the assay on SW-620 colon. The TGI in the assay with A498 renal was 7.64 µM; in the assay with HOP-62 NSCLC, 8.12 µM; in the assay with HOP-92 NSCLC, 6.22 µM; in the assay with MCF7 breast, above 100 µM; in the assay with MDA-MB-231 breast, 21.4 µM; in the assay on OVCAR-8 ovarian, above 100 µM. In addition, the TGI in the assay with SF-539 CNS was 6.95 µM; in the assay with SW-620 colon, above 100 µM.

Turning to `O=C1C=C(Nc2cc(Cl)ccc2Cl)c2ccccc2C1=O`, the TGI in the assay on A498 renal was 52 µM; in the assay on HOP-62 NSCLC it was 72.9 µM; in the assay with HOP-92 NSCLC, 69.7 µM; in the assay on M19-MEL melanoma it was 29.2 µM; in the assay with OVCAR-8 ovarian it was 56.9 µM; with SF-539 CNS, above 100 µM. In the assay on SW-620 colon, this compound yielded a TGI above 100 µM.

Turning to `NC(=O)NC(=O)Nc1ccc(Br)cc1`, the TGI was above 100 µM in the assay on A498 renal; above 30.8 µM in the assay on HOP-62 NSCLC; above 100 µM with HOP-92 NSCLC; above 100 µM in the assay with MCF7 breast; above 42.1 µM with MDA-MB-231 breast; above 34.6 µM with OVCAR-8 ovarian. The TGI in the assay on SF-539 CNS is above 100 µM; in the assay on SW-620 colon it was above 29.4 µM.

With `Cc1ccc(/C=C(/C#N)n2nnc3cccc(F)c32)cc1`, the GI50 was 0.226 µM with A498 renal; 1.37 µM in the assay on HOP-62 NSCLC; 0.309 µM with HOP-92 NSCLC; 0.466 µM with MCF7 breast; 0.807 µM in the assay on MDA-MB-231 breast; 0.594 µM in the assay on OVCAR-8 ovarian. Moreover, the figures for the GI50 with SF-539 CNS and in the assay with SW-620 colon were 0.247 µM and 0.354 µM, respectively. The TGI in the assay with A498 renal is 0.877 µM; with HOP-62 NSCLC it was above 100 µM; with HOP-92 NSCLC, 4.75 µM; in the assay on MCF7 breast, 16.6 µM; in the assay on MDA-MB-231 breast it was 9.66 µM; in the assay with OVCAR-8 ovarian, above 100 µM. Further, the TGI in the assay on SF-539 CNS came out at 0.657 µM; in the assay with SW-620 colon, 5.53 µM.

Regarding `CC(C)(Oc1cccc(N2CCC[C@@H](C(=O)N(Cc3ccc(-c4cn[nH]c4)cc3)C3CC3)C2)c1)C(=O)N1CCNCC1`, the GI50 is 16 µM in the assay with A498 renal; 13.3 µM with HOP-62 NSCLC; 9.9 µM with HOP-92 NSCLC; 11.6 µM in the assay with MCF7 breast; 14.8 µM in the assay on MDA-MB-231 breast; 18.6 µM in the assay with OVCAR-8 ovarian. In addition, the values for the GI50 in the assay on SF-539 CNS and in the assay with SW-620 colon were 11.4 µM and 15.5 µM, respectively. The TGI with A498 renal was determined as 30.1 µM; in the assay with HOP-62 NSCLC, 28.5 µM; in the assay with HOP-92 NSCLC it was 23.8 µM; in the assay on MCF7 breast, 25.4 µM; in the assay with MDA-MB-231 breast, 29.7 µM; in the assay with OVCAR-8 ovarian it was 42.7 µM. For the same compound, the figures for the TGI in the assay on SF-539 CNS and in the assay on SW-620 colon were 24.2 µM and 31.5 µM, respectively.

`CCc1nc(N)nc(N)c1-c1ccc(N2CCNCC2)c([N+](=O)[O-])c1`: the TGI was above 100 µM in the assay with A498 renal; above 91.8 µM in the assay with HOP-62 NSCLC; above 100 µM with HOP-92 NSCLC; above 79.1 µM in the assay with MCF7 breast; 69.2 µM with MDA-MB-231 breast; above 100 µM in the assay with OVCAR-8 ovarian. Further, the TGI in the assay on SF-539 CNS and in the assay on SW-620 colon was above 100 µM each time.

(Values after PubChem BioAssay (NCI).)
